Test results: patent US8426447B2, “Spiro-tricyclic ring compounds as beta-secretase modulators and methods of use” (Amgen Inc., priority 2008, dated 2013)
Values belong to the molecule of their own block, whether it stands above or below them.

Assays:
[1] = biological target: T1, BACE1 (Homo sapiens, UniProt P56817); test: In Vitro BACE Cell-based Assay (HEK cell assay): Aβ40 in conditioned medium of cells stably expressing Amyloid Precursor Protein, sandwich ELISA; details: read-out: HEK cell assay
Procedure, shortened: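 Read-out is time-resolved fluorescence of Aβ40 in supernatant, captured by pAb40 and detected with biotinylated 6E10 plus Streptavidin-Europium. Cells stably expressing APP received compounds for 24 h over 10 concentrations starting at 100 μM or 10 μM, final DMSO 0.1%.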

[2] = biological target: T1, BACE1; test: In Vitro Enzymatic BACE FRET (Fluorescence Resonance Energy Transfer) Assay; format: biochemical; details: read-out: BACE1 FRET assay
Procedure, shortened: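 One-hour incubation initiated by 50 nM quenched FRET peptide spanning the BACE cleavage site, in 0.05 M acetate (pH 4.2), 100 uM genapol, 10% DMSO final. Tris addition neutralizes pH to end the reaction before fluorescence measurement.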

[3] = HEK cell-based assay, Aβ40 in conditioned medium, IC50 class symbols
[4] = in vitro BACE FRET enzyme assay, IC50 class symbols

T1 sequence (P56817 46-501, species assumed): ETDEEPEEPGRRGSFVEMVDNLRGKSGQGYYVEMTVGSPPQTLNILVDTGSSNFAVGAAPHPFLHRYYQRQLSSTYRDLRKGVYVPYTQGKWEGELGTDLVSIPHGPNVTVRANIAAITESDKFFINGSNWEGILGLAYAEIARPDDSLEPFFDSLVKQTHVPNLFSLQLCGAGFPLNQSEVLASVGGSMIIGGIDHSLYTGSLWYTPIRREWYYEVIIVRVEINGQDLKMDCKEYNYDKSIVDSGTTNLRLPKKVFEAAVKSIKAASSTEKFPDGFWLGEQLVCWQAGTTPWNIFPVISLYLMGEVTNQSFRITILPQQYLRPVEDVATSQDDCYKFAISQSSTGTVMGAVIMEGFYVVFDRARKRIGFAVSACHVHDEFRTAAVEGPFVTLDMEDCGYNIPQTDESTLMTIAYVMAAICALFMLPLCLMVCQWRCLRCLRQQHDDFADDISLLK

SMILES: NC1=N[C@]2(CO1)c1cc(OCC3CCOCC3)ccc1Oc1ccc(-c3cncnc3)cc12 [compound 175]
IC50 ([1]; Table III, IC50's in uM ranges): < 0.1 µM
IC50 ([2]; Table III, IC50's in uM ranges): < 0.1 µM

SMILES: NC1=N[C@@]2(CO1)c1cc(-c3cccnc3)ccc1Oc1cnc(N3CCC3)cc12 [compound 447]
IC50 ([1]; HEK cells): 0.1 to 1 µM
IC50 [2]: < 0.1 µM

SMILES: NC1=N[C@@]2(CO1)c1cnccc1Oc1ccc(-c3cccnc3)cc12 [compound 556]
IC50 ([1]; Table IV, class symbols): 0.1 to 1 µM
IC50 ([2]; Table IV, class symbols): 0.1 to 1 µM

SMILES: COC(C)(C)C#Cc1cnc2c(c1)[C@@]1(COC(N)=N1)c1cc(-c3ccncc3)ccc1O2 [compound 692]
IC50 [1]: > 5 µM
IC50 [2]: > 5 µM

SMILES: COCC[C@@H]1CN(c2ccc3c(c2)[C@]2(COC(N)=N2)c2cc(-c4cccnc4)ccc2O3)CCO1 [compound 362]
IC50 [1, 3]: 0.1 to 1 µM
IC50 [2, 4]: 0.1 to 1 µM

SMILES: NC1=N[C@@]2(CO1)c1cc(-c3cncnc3)ccc1Oc1cccnc12 [compound 525]
IC50 ([1]; HEK cells): > 5 µM
IC50 [2]: > 5 µM

SMILES: CC(C)(F)COc1cnc2c(c1)[C@]1(COC(N)=N1)c1cc(-c3cccc(C#N)c3)ccc1O2 [compound 357]
IC50 [1, 3]: < 0.1 µM
IC50 [2, 4]: < 0.1 µM

SMILES: CC(C)(F)COc1ccc2c(c1)[C@]1(COC(N)=N1)c1cc(-c3cccnc3)cnc1O2 [compound 177]
IC50 ([1]; Table III, IC50's in uM ranges): < 0.1 µM
IC50 ([2]; Table III, IC50's in uM ranges): < 0.1 µM

SMILES: NC1=N[C@@]2(CO1)c1cc(-c3cc(F)ccc3F)ccc1Oc1ncc(N3CCOCC3)cc12 [compound 461]
IC50 ([1]; HEK cells): < 0.1 µM
IC50 [2]: < 0.1 µM

SMILES: Cc1cccc(-c2ccc3c(c2)[C@]2(COC(N)=N2)c2cc(-c4cncnc4)ccc2O3)c1 [compound 998]
IC50 [1]: < 0.1 µM
IC50 [2]: < 0.1 µM

SMILES: CC(C)(C)OC(=O)Cc1ccc2c(c1)[C@@]1(COC(N)=N1)c1cc(Br)ccc1O2 [compound 858]
IC50 ([1]; Table IV, class symbols): > 5 µM
IC50 ([2]; Table IV, class symbols): > 5 µM

SMILES: CC(C)OCCOc1ccc2c(c1)[C@]1(COC(N)=N1)c1cc(-c3cccnc3)ccc1O2 [compound 181]
IC50 ([1]; Table III, IC50's in uM ranges): 0.1 to 1 µM
IC50 ([2]; Table III, IC50's in uM ranges): < 0.1 µM

The remaining lines, values ahead:

IC50 ([1]; HEK cells): 0.1 to 1 µM
IC50 [2]: < 0.1 µM
SMILES: NC1=N[C@@]2(CO1)c1cc(-c3cc(C4=CCOCC4)ccc3F)ccc1Oc1cnc(C3=CCOCC3)cc12 [compound 423]

IC50 ([1]; Table IV, class symbols): > 5 µM
IC50 ([2]; Table IV, class symbols): > 5 µM
SMILES: CN(C)c1ncc(-c2ccc3c(c2)[C@@]2(COC(N)=N2)c2cc(OCC(C)(C)C)ccc2O3)cn1 [compound 838]

IC50 ([1]; Table III, IC50's in uM ranges): 0.1 to 1 µM
IC50 ([2]; Table III, IC50's in uM ranges): < 0.1 µM
SMILES: NC1=N[C@]2(CO1)c1cc(C(=O)CC3CCCCC3)ccc1Oc1ccc(-c3cncnc3)cc12 [compound 141]

IC50 ([1]; Table IV, class symbols): 0.1 to 1 µM
IC50 ([2]; Table IV, class symbols): 0.1 to 1 µM
SMILES: COC(=O)CCc1ccc2c(c1)[C@]1(COC(N)=N1)c1cc(-c3cncnc3)ccc1O2 [compound 877]

IC50 [1]: > 5 µM
IC50 [2]: 1 to 5 µM
SMILES: NC1=N[C@]2(CO1)c1cc(-c3cccnc3)ccc1Oc1cnc(Cl)cc12 [compound 955]

IC50 [1]: < 0.1 µM
IC50 [2]: < 0.1 µM
SMILES: NC1=N[C@@]2(CO1)c1cc(-c3cncnc3)ccc1Oc1ccc(-c3ccc(F)nc3)cc12 [compound 991]

IC50 [1]: 0.1 to 1 µM
IC50 [2]: < 0.1 µM
SMILES: CC(C)(C)COc1ccc2c(c1)[C@]1(COC(N)=N1)c1cc(-c3cccnc3)ncc1O2 [compound 750]

IC50 ([1]; HEK cells): < 0.1 µM
IC50 [2]: < 0.1 µM
SMILES: CC1(C#Cc2cnc3c(c2)[C@]2(COC(N)=N2)c2cc(-c4cc(Cl)ccc4F)ccc2O3)COC1 [compound 521, (5S)-7-(5-chloro-2-fluorophenyl)-3-((3-methyl-3-oxetanyl)ethynyl)spiro[chromeno[2,3-b]pyridine-5,4′-[1,3]oxazol]-2′-amine]

IC50 ([1]; Table IV, class symbols): < 0.1 µM
IC50 ([2]; Table IV, class symbols): < 0.1 µM
SMILES: COc1cc(F)c2c(c1)[C@]1(COC(N)=N1)c1cc(-c3cncnc3)ccc1O2 [compound 581]
